Results as given in patent publication USRE47221E1, “Tricyclic compounds” (AbbVie Inc., priority 2009, dated 2019).

What was measured:
[1] = biological target: T1, Jak3 (Homo sapiens, UniProt P52333); experiment: Jak3 enzyme data for selected compounds; format: biochemical
T1 construct: Jak3 enzyme (aa 811-1103); expressed in SF9 cells as a GST fusion; GST; made in house; host or cells: SF9 insect cells
T1 sequence (P52333 811-1103): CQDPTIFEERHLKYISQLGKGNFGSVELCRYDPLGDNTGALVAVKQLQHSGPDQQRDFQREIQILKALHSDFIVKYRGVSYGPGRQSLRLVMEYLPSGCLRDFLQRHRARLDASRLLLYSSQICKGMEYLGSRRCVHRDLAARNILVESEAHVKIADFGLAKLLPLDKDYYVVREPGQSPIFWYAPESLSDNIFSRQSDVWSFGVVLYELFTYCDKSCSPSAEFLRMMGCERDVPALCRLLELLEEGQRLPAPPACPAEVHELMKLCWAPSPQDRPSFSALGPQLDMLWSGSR

| Compound | melting point [°C] | IC50 [1] [nM] |
| --- | --- | --- |
| C[C@@H]1C[C@H](NS(=O)(=O)CCC(F)(F)F)C[C@@H]1c1cnc2cnc3[nH]ccc3n12 [Example #7, N-((1S,3S,4R)-3-(3H-imidazo[1,2-a]pyrrolo[2,3-e]pyrazin-8-yl)-4-methylcyclopentyl)-3,3,3-trifluoropropane-1-sulfonamide] | 225 |  |
| O=C(N1CCCC1)N1CCC[C@@H](c2ncc3cnc4[nH]ccc4n23)C1 [I.3.1] |  | 100 to 1000 |
| C[C@@H]1CCN(C(=O)N2CCC[C@@H]2C#N)C[C@@H]1c1ncc2cnc3[nH]ccc3n12 [J.2.2] |  | < 100 |
| C[C@@H]1CCN(C(=O)N2CCC[C@H]2C#N)C[C@@H]1c1ncc2cnc3[nH]ccc3n12 [J.2.3] |  | < 100 |
| C[C@@H]1CCN(C(=O)N2CC(F)(F)C2)C[C@@H]1c1ncc2cnc3[nH]ccc3n12 [J.2.5] |  | < 100 |
| C[C@@H]1CCN(C(=O)N2CCC2)C[C@@H]1c1ncc2cnc3[nH]ccc3n12 [J.2.6] |  | < 100 |
| C[C@@H]1CCN(C(=O)N2CC[C@@H](F)C2)C[C@@H]1c1ncc2cnc3[nH]ccc3n12 [J.2.7] |  | < 100 |
| C[C@@H]1CCN(C(=O)N2CCC(F)(F)C2)C[C@@H]1c1ncc2cnc3[nH]ccc3n12 [J.2.8] |  | < 100 |
| C[C@@H]1CCN(C(=O)N2CCC[C@@H]2CO)C[C@@H]1c1ncc2cnc3[nH]ccc3n12 [J.2.9] |  | < 100 |
| C[C@@H]1CCN(C(=O)N2CC(F)C2)C[C@@H]1c1ncc2cnc3[nH]ccc3n12 [J.2.11] |  | < 100 |
| C[C@@H]1CCN(C(=O)N2CC[C@H](F)C2)C[C@@H]1c1ncc2cnc3[nH]ccc3n12 [J.2.12] |  | < 100 |
| C[C@@H]1CCN(C(=O)N2CCC[C@H]2C)C[C@@H]1c1ncc2cnc3[nH]ccc3n12 [J.2.13] |  | < 100 |
| C[C@@H]1CCN(C(=O)N2CCCCCC2)C[C@@H]1c1ncc2cnc3[nH]ccc3n12 [J.2.14] |  | < 100 |
| C[C@@H]1CCN(C(=O)N2CCC[C@@H]2C(F)(F)F)C[C@@H]1c1ncc2cnc3[nH]ccc3n12 [J.2.15] |  | < 100 |
| O=C(N1CCC[C@@H](c2ncc3cnc4[nH]ccc4n23)C1)N1CC(F)(F)C1 [J.3.1] |  | < 100 |
| O=C(N1CCC[C@@H](c2ncc3cnc4[nH]ccc4n23)C1)N1CCC(F)(F)C1 [J.3.2] |  | < 100 |
| N#CC1CN(C(=O)N2CCC[C@@H](c3ncc4cnc5[nH]ccc5n34)C2)C1 [J.3.4] |  | < 100 |

| Compound | melting point [°C] | IC50 [1] [nM] |
| --- | --- | --- |
| CC1(C)CCN(C(=O)N2CCC[C@@H](c3ncc4cnc5[nH]ccc5n34)C2)C1 [J.3.6] |  | 100 to 1000 |
| O=C(N1CCC[C@@H](c2ncc3cnc4[nH]ccc4n23)C1)N1CCCC(F)(F)C1 [J.3.7] |  | 100 to 1000 |
| N#CC1CCN(C(=O)N2CCC[C@@H](c3ncc4cnc5[nH]ccc5n34)C2)CC1 [J.3.8] |  | 100 to 1000 |
| CC1(C)CCN(C(=O)N2CCC[C@@H](c3ncc4cnc5[nH]ccc5n34)C2)CC1 [J.3.10] |  | < 100 |
| O=C(N1CCC(Cl)CC1)N1CCC[C@@H](c2ncc3cnc4[nH]ccc4n23)C1 [J.3.11] |  | < 100 |
| O=S(=O)(NC12CCC(c3cnc4cnc5[nH]ccc5n34)(CC1)CC2)C1CC1 [K.3.1] |  | 100 to 1000 |
| CC[C@@H]1C[C@H](NS(=O)(=O)CCC(F)(F)F)CN1c1cnc2cnc3[nH]ccc3n12 [K.4.1] |  | < 100 |
| CC[C@@H]1C[C@H](NS(=O)(=O)CC(F)(F)F)C[C@@H]1c1nnc2cnc3[nH]ccc3n12 [K.5.1] |  | < 100 |
| CC[C@@H]1C[C@H](NS(=O)(=O)C2CC2)C[C@@H]1c1nnc2cnc3[nH]cc(C)c3n12 [LL.1.1] |  | 100 to 1000 |
| CC[C@@H]1C[C@H](N(CO)S(=O)(=O)C2CC2)C[C@@H]1c1nnc2cnc3[nH]cc(C)c3n12 [LL.1.2] |  | > 1000 |
| CC[C@@H]1C[C@H](NS(=O)(=O)C2CC2)C[C@@H]1c1nnc2cnc3[nH]cc(C#N)c3n12 [LL.1.3] |  | > 1000 |
| CC[C@@H]1C[C@H](S(=O)(=O)CC(F)(F)F)C[C@@H]1c1nnc2cnc3[nH]ccc3n12 [LL.1.4] |  | > 1000 |
| CC[C@@H]1C[C@H](NS(=O)(=O)C2CC2)C[C@@H]1c1nnc2cnc3[nH]cc(I)c3n12 [Preparation #GGG.1, N-((1S,3R,4S)-3-ethyl-4-(8-iodo-6H-pyrrolo[2,3-e][1,2,4]triazolo[4,3-a]pyrazin-1-yl)cyclopentyl)cyclopropanesulfonamide] |  | 100 to 1000 |
| C[C@@H]1CCN(C(=O)Nc2ccc(C#N)cc2)C[C@@H]1c1ncc2cnc3[nH]ccc3n12 [QQ.1.4] |  | < 100 |
| CS(=O)(=O)Nc1ccc(-c2nc(C3CCCCC3)n3c2cnc2[nH]ccc23)cc1 [UUU.1.1] |  | < 100 |
| CC[C@@H]1C[C@H](NS(=O)(=O)CCn2cc(C#N)cn2)C[C@@H]1c1nnc2cnc3[nH]ccc3n12 [YY.1.1, 2-(4-cyano-1H-pyrazol-1-yl)-N-((1S,3R,4S)-3-ethyl-4-(6H-pyrrolo[2,3-e][1,2,4]triazolo[4,3-a]pyrazin-1-yl)cyclopentyl)ethanesulfonamide] |  | > 1000 |
| CC[C@@H]1C[C@H](NS(=O)(=O)CCn2cncn2)C[C@@H]1c1nnc2cnc3[nH]ccc3n12 [YY.1.2] |  | > 1000 |
